Experimental findings from PubChem BioAssay AID1645871 are described below.

One may read the Papp as a coefficient for how fast a substance crosses the barrier.

The conditions of the series: pampa; pH 5.0; 30.0 min; 50.0 µM.

`COc1ccc(-n2nc(C)c([C@@H]3C=C[C@@H](NCc4cccc(Cl)c4)C3)c2C)cc1` gave an apparent permeability (Papp) of 773 ×10⁻⁶ cm/s.

As to `O=C(O)c1cnc(-c2ccc(F)cc2)nc1-c1ccncc1`, the Papp is 38.3 ×10⁻⁶ cm/s. As for `Cn1ncnc1[C@H]1c2n[nH]c(=O)c3cc(F)cc(c23)N[C@@H]1c1ccc(F)cc1`, the Papp came to 46.2 ×10⁻⁶ cm/s. The Papp values of the last two compounds are within 1.5-fold of each other.

`Cc1ccc(Nc2nc(C)c(NC(=O)c3ccc(C)cc3)c(Nc3ccc(C)cc3)n2)cc1` yielded a Papp of 6.76 ×10⁻⁶ cm/s.

`COc1ccccc1Nc1cnc2ccc(-c3ccc(OC)c(OC)c3)nn12` yielded a Papp of 621 ×10⁻⁶ cm/s. In the case of `COc1ccc(C)cc1Nc1c2c(nc3ccccc13)CCC2` it was 293 ×10⁻⁶ cm/s; in that of `O=C(Nc1ccc2c(N3CCCCC3)ncnc2c1)c1cc(F)cc(F)c1`, 817 ×10⁻⁶ cm/s. `Nc1nc2c(s1)C(c1ccc(F)cc1F)CC(=O)N2` (stereo not given) registered a Papp of 5 ×10⁻⁶ cm/s. This Papp lies about 160-fold lower than the previous one.

Turning to `CCN(C(=O)C(NS(=O)(=O)c1ccc(Br)s1)c1ccccc1)c1ccc(C)c(C)c1` (stereo not given), the Papp is 110 ×10⁻⁶ cm/s.

`Cc1cccc(-c2cc(NC(=O)c3ccccc3C)n(-c3ccccc3)n2)c1`: the Papp was 786 ×10⁻⁶ cm/s. Against the preceding compound, the Papp is about 7.1-fold higher. In the case of `O=C(Nc1ccc2c(N3CCOCC3)ncnc2c1)c1cccc(Br)c1` it was 654 ×10⁻⁶ cm/s; in that of `CCc1cccc(NC(=O)C(Cc2ccccc2)NS(=O)(=O)c2cccs2)c1` (stereo not given), above 1000 ×10⁻⁶ cm/s.

`CNC(=O)C1CCN(C(=O)c2ccc(-c3ncc4cnc(-c5ccccc5)cn34)cc2)CC1` returned a Papp of 30.1 ×10⁻⁶ cm/s.

For `CCOc1ccc(CCNC(=O)c2cc3ccccc3n2C)cc1OCC`, the Papp is above 1000 ×10⁻⁶ cm/s. In turn, `CC[C@H]1CN2CCC3CC(OC)C(OC)CC3[C@@H]2C[C@@H]1C[C@H]1NCCC2=C1CC(OC)=C(O)C2` (stereo not given in full) came in with an apparent permeability (Papp) of 17.9 ×10⁻⁶ cm/s.
